# Key:
# [1] = tested on: HCT-116 MTAP(-/-) deficient cells; test: Inhibition of proliferation of HCT-116 MTAP(-/-) deficient cells (Cell-Titer Glo); assay type: cell-based; settings: 8 days
# Protocol: Test 1: Compound's inhibitory activity on proliferation of HCT-116 MTAP(-/-) deficient cells.
# Materials and Cells: HCT-116 MTAP(-/-) deficient cells obtained from Kyinno Bio (China); RPMI-1640 medium, fetal bovine serum, and penicillin-streptomycin purchased from Thermo Fisher Scientific (America); 384-well plates from PerkinElmer (America); Cell-Titer Glo assay kit from Promega (America).
# Cell Culture: HCT116 MTAP(-/-) deficient cells were cultured in RPMI 1640 medium containing 10% fetal bovine serum and 1% penicillin-streptomycin at 37°C, 5% CO2. Only cells in logarithmic growth phase were used for experiments.
# (§1) Cell Proliferation Inhibition Assay: The compound's inhibitory activity on HCT-116 MTAP(-/-) deficient cells was assessed using the Cell-Titer Glo assay kit. Adjusting cell concentration, 40 µL was seeded into a 384-well plate and cultured overnight at 37°C, 5% CO2. Each well received 40 nL of the compound, achieving concentrations from 0 to 10,000 nM (starting concentration 10,000 nM, 3-fold dilution, 10 points), with 0.1% DMSO. The cell plate was incubated for 8 days at 37°C, 5% CO2. Cell-Titer Glo reagent (40 µL) was added to measure cell viability.
# [2] = tested on: HCT-116 MTAP wild-type cells; test: Inhibition of proliferation of HCT-116 MTAP wild-type cells (Cell-Titer Glo); assay type: cell-based; settings: 8 days
# Protocol: Test 2: Compound's inhibitory activity on proliferation of HCT-116 MTAP wild-type cells.
# Materials and Cells: HCT-116 MTAP wild-type cells obtained from Kyinno Bio (China); RPMI-1640 medium, fetal bovine serum, and penicillin-streptomycin purchased from Thermo Fisher Scientific (America); 384-well plates from PerkinElmer (America); Cell-Titer Glo assay kit from Promega (America).
# Cell Culture: HCT116 MTAP wild-type cells were cultured in RPMI 1640 medium containing 10% fetal bovine serum and 1% penicillin-streptomycin at 37°C, 5% CO2. Only cells in logarithmic growth phase were used for experiments.
# as §1, with “MTAP wild-type” for “MTAP(-/-) deficient”
Compound,"IC50 ([1]; Homo sapiens, HCT-116, 192 h)","IC50 ([2]; Homo sapiens, HCT-116, 192 h)",IC50 [1],IC50 [2]
"4-amino-N-methyl-N-(8-(trifluoromethyl)-1, 3,4,5-tetrahydrobenzo [c]oxepin-5-yl)imidaz o[1,5-a]quinoxaline-8 -carboxamide [Example 44]",–,–,310 nM,> 10000 nM
"4-amino-N-methyl-N-((1S,4S)-1-methyl-7-( trifluoromethyl)isochr oman-4-yl)imidazo[1, 5-a]quinoxaline-8-car boxamide [Example 105]",–,–,66.1 nM,2190 nM
"Cc1ncn2c1c(N)nc1ccc(C(=O)N(C3CC3)[C@H]3COc4cc(C(F)(F)F)ccc43)cc12 (single isomer, unassigned) [Example 85]",791 nM,781 nM,–,–
"CN(C(=O)c1ccc2nc(N)c3cncn3c2c1)[C@H]1COCc2ccc(C(F)(F)F)cc21 (single isomer, unassigned) [Example 93]",> 3000 nM,> 10000 nM,–,–
"CN(C(=O)c1ccc2nc(N)c3cncn3c2c1)[C@@H]1COCc2ccc(C(F)(F)F)cc21 (single isomer, unassigned) [Example 94]",80.8 nM,5170 nM,–,–
"C[C@@H]1OC[C@@H](N(C)C(=O)c2ccc3nc(N)c4cncn4c3c2)c2ccc(F)cc21 (single isomer, unassigned) [Example 95]",211 nM,> 10000 nM,–,–
"C[C@@H]1OC[C@@H](N(C)C(=O)c2ccc3nc(N)c4cncn4c3c2)c2cc(F)ccc21 (single isomer, unassigned) [Example 99]",928 nM,7130 nM,–,–
"CN(C(=O)c1ccc2nc(N)c3cncn3c2c1)[C@H]1CSc2cc(C(F)(F)F)ccc21 (single isomer, unassigned) [Example 101]",2190 nM,> 10000 nM,–,–
"CN(C(=O)c1cc2c(cc1F)nc(N)c1cncn12)[C@H]1COC(C)(C)c2cc(C(F)(F)F)ccc21 (single isomer, unassigned) [Example 134]",623 nM,5890 nM,–,–
"CN(C(=O)c1ccc2nc(N)c3cncn3c2c1)C1COc2ccccc21 (centres unmarked) [Example 1, 4-amino-N-(2,3-dihydrobenzofuran-3-yl)-N-methylimidazo[1,5-a]quinoxaline-8-carboxamide]",2310 nM,> 10000 nM,–,–
"CN(C(=O)c1ccc2nc(N)c3cncn3c2c1)C1COc2nc(C(F)(F)F)ccc21 (centres unmarked) [Example 7, 4-amino-N-methyl-N-(6-(trifluoromethyl)-2,3-dihydrofuro[2,3-b]pyridin-3-yl)imidazo[1,5-a]quinoxaline-8-car boxamide]",141 nM,> 10000 nM,–,–
"CN(C(=O)c1ccc2nc(N)c3cncn3c2c1)C1COCc2ccc(C(F)(F)F)cc21 (centres unmarked) [Example 8, 4-amino-N-methyl-N-(6-(trifluoromethyl)isochroman-4-yl)imidaz o[1,5-a]quinoxaline-8-carboxamide]",106 nM,6480 nM,–,–
"CN(C(=O)c1ccc2nc(N)c3cc(F)cn3c2c1)[C@@H]1COc2cc(Br)ccc21 [Example 11, (S)-4-amino-N-(6-bromo-2,3-dihydrobenzof uran-3-yl)-2-fluoro-N -methylpyrrolo[1,2-a] quinoxaline-8-carbox amide]",1770 nM,6410 nM,–,–

# Continued, in another order:
"IC50 ([1]; Homo sapiens, HCT-116, 192 h)","IC50 ([2]; Homo sapiens, HCT-116, 192 h)",Compound,IC50 [1],IC50 [2]
21.9 nM,1470 nM,"Nc1nc2ccc(C(=O)N(C3CC3)[C@@H]3COc4cc(C(F)(F)F)ccc43)cc2n2cncc12 (single isomer, unassigned) [Example 84]",–,–
61.1 nM,1330 nM,"Cc1ncn2c1c(N)nc1ccc(C(=O)N(C3CC3)[C@@H]3COc4cc(C(F)(F)F)ccc43)cc12 (single isomer, unassigned) [Example 86]",–,–
29.8 nM,1550 nM,"C[C@@H]1OC[C@@H](N(C)C(=O)c2cc3c(cn2)nc(N)c2cncn23)c2ccc(C(F)(F)F)cc21 (single isomer, unassigned) [Example 97]",–,–
68.3 nM,3580 nM,"C[C@H]1OC[C@@H](N(C)C(=O)c2ccc3nc(N)c4cncn4c3c2)c2cc(F)ccc21 (single isomer, unassigned) [Example 100]",–,–
7.9 nM,1990 nM,"CN(C(=O)c1ccc2nc(N)c3cncn3c2c1)[C@@H]1CSc2cc(C(F)(F)F)ccc21 (single isomer, unassigned) [Example 102]",–,–
9.3 nM,1960 nM,"CN(C(=O)c1cc2c(cc1F)nc(N)c1cncn12)[C@@H]1COC(C)(C)c2cc(C(F)(F)F)ccc21 (single isomer, unassigned) [Example 135]",–,–
61 nM,6670 nM,"CN(C(=O)c1ccc2nc(N)c3cncn3c2c1)[C@@H]1COc2cc(-c3cnn(C)c3)ccc21 [Example 2, (S)-4-amino-N-methy 1-N-(6-(1-methyl-1H-pyrazol-4-yl)-2,3-dihydrobenzofuran-3-yl)i midazo[1,5-a]quinoxa line-8-carboxamide]",–,–
23.4 nM,2250 nM,"CN(C(=O)c1ccc2nc(N)c3cncn3c2c1)[C@@H]1COc2cc(Br)ccc21 [Example 3, (S)-4-amino-N-(6-bromo-2,3-dihydrobenzof uran-3-yl)-N-methyli midazo[1,5-a]quinoxaline-8-carboxamide]",–,–
4 nM,280 nM,"CC1OC[C@@H](N(C)C(=O)c2ccc3nc(N)c4cncn4c3c2)c2ccc(C(F)(F)F)cc21 (stereo partly drawn) [Example 5, 4-amino-N-methyl-N-((4S)-1-methyl-7-(trifluoromethyl)isochroman-4-yl)imidazo[1,5-a]quinoxaline-8-carbox amide]",–,–
10.6 nM,993 nM,"Cc1ncn2c1c(N)nc1ccc(C(=O)N(C)[C@@H]3COc4cc(C(F)(F)F)ccc43)cc12 [Example 6, (S)-4-amino-N,3-dime thyl-N-(6-(trifluoromethyl)-2,3-dihydrobenzofuran-3-yl)imidazo[1 ,5-a]quinoxaline-8-car boxamide]",–,–
41.1 nM,2140 nM,"CC1OC[C@@H](N(C)C(=O)c2ccc3nc(N)c4cncn4c3c2)c2ccc(F)cc21 (stereo partly drawn) [Example 9, 4-amino-N-((4S)-7-fluoro-1-methylisochroman-4-yl)-N-methyli midazo[1,5-a]quinoxa line-8-carboxamide]",–,–
31.2 nM,3110 nM,"CN(C(=O)c1ccc2nc(N)c3cncn3c2c1)[C@@H]1COc2cc(C#N)ccc21 [Example 10, (S)-4-amino-N-(6-cyano-2,3-dihydrobenzof uran-3-yl)-N-methyli midazo[1,5-a]quinoxa line-8-carboxamide]",–,–
6.1 nM,1110 nM,"CN(C(=O)c1cc2c(cc1Cl)nc(N)c1cncn12)[C@@H]1COc2cc(Br)ccc21 [Example 12, (S)-4-amino-N-(6-bromo-2,3-dihydrobenzof uran-3-yl)-7-chloro-N -methylimidazo[1,5-a] quinoxaline-8-carbox amide]",–,–
15.7 nM,2510 nM,"CN(C(=O)c1cc2c(cc1F)nc(N)c1cncn12)C1COC(C)(C)c2cc(C(F)(F)F)ccc21 (centres unmarked) [Example 13, 4-amino-N-(1,1-dimethyl-7-(trifluoromethyl)isochroman-4-yl)-7-f luoro-N-methylimidaz o[1,5-a]quinoxaline-8-carboxamide]",–,–
4.2 nM,243 nM,"CC1OC[C@@H](N(C)C(=O)c2cc3c(cn2)nc(N)c2cncn23)c2ccc(Br)cc21 (stereo partly drawn) [Example 17, 4-amino-N-((4S)-7-bromo-1-methylisochroman-4-yl)-N-methyli midazo[1,5-a]pyrido[3,4-e]pyrazine-8-carb oxamide]",–,–

# — patent EP4775208A1, “USE OF PRMT5 INHIBITOR IN TREATMENT OF TUMORS OR CANCERS” (Apeiron Therapeutics (Hong Kong) Ltd., priority 2023, dated 2025)
